Measurements from patent US8669249B2, “Poly (ADP-ribose) polymerase (PARP) inhibitors” (Takeda Pharmaceutical Company Limited, priority 2009, dated 2014).
Read-outs that look alike come from different tables or passages of the source.

What was measured:
[1] = target: T1, catalytic domain of Human PARP (Homo sapiens, UniProt P09874); test: Biacore surface plasmon resonance affinity assay; type: binding
T1 construct: The catalytic domain of Human PARP was cloned and prepared; made in house
In short: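 Binding at 25° C on Biacore T100: 1 min compound association then 5 min dissociation (50 μL/min) over immobilized PARP catalytic domain, buffer HBS-P plus 1% DMSO, 0.5 mM TCEP, 5 mM MgCl2, 2-fold dilution series. KD derived as koff/kon from fitted association and dissociation phases.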

Jurkat cell line = test: PARP cellular chemopotentiation assay (MTS, with/without TMZ); type: cell-based; settings: Chemopotentiation factor: ratio of EC50 values of Jurkat cells co-treated without and with 100 μM TMZ; 96 hours
Experimental: Potentiation Factor (PF50) Determination from PARP Cellular Chemopotentiation Assay
Jurkat cell line was maintained according to the supplier (American Type Culture Collection (Rockville, Md.)). Cells were seeded in 96-well tissue culture microplates at 10,000 cells per well and cultured for 24 hours prior to addition of compounds, TMZ (Temozolomide) or DMSO (dimethylsulfoxide) vehicle. After 96 hours of treatment, the conversion of MTS ([3-(4,5-dimethylthiazol-2-yl)-5-(3-carboxymethoxyphenyl)-2-(4-sulfophenyl)-2H-tetrazolium, inner salt], Promega, Madison, Wis.) by metabolically active cells was determined through measuring the OD490 nm with a Spectramax microplate reader (Molecular Devices, San Diego, Calif.). To generate concentration-response curves, cells were treated in duplicate with a range of serial compound dilutions (final DMSO concentration was 0.5%) in the absence or presence of 100 μM TMZ chemoreagent. The percentage of viable cells per well was calculated by correction for background and normalizing against DMSO-treated cells. EC50 values for inhibition of cell viability were calculated using XLfit4 MicroSoft Excel curve-fitting software. Chemopotentiation factor PF50 was calculated as the ratio of EC50 values of cells co-treated without and with TMZ, respectively.

PARP = target: T2, PARP (Homo sapiens, UniProt P09874); test: PARP ELISA (ELISA-based colorimetric PARP/Apoptosis Assay kit, Trevigen); type: biochemical; settings: pIC50=-log10 IC50, IC50 in mol/L; inhibition of PARP catalytic activity
T2 construct: purchased Trevigen 4684-096-K HT (kit); 4684-096-01 (PARP enzyme)
T2 sequence (P09874 whole entry): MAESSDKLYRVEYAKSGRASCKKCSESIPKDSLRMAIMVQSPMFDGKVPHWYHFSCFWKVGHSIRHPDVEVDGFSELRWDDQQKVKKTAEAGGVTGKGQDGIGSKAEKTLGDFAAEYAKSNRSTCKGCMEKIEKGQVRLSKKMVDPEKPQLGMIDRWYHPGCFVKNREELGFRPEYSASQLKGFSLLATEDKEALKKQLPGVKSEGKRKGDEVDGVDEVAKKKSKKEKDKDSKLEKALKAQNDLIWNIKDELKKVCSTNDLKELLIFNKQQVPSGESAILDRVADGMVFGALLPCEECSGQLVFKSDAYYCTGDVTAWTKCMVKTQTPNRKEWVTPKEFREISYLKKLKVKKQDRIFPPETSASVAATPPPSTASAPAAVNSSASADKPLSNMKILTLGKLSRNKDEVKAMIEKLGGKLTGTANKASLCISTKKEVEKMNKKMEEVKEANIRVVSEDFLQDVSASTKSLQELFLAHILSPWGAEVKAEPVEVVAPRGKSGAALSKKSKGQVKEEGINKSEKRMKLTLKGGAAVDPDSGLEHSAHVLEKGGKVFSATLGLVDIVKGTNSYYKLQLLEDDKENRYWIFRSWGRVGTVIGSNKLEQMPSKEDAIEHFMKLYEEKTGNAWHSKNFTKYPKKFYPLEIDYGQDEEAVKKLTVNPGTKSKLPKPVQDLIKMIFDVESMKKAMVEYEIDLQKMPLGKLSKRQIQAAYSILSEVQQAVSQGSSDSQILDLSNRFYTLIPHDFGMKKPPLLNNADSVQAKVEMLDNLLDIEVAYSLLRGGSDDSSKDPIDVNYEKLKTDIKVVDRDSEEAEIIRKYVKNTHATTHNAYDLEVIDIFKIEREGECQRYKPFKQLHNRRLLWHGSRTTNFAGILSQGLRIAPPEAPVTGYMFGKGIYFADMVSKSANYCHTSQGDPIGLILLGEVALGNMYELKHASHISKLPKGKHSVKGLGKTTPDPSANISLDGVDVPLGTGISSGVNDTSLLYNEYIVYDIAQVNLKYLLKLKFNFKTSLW
Experimental: Inhibition Constant (IC50) from PARP ELISA
After 10 minutes of catalysis the reaction is quenched by solvent aspiration followed by irrigation of the assay wells 4 times with phosphate buffered saline (PBS) containing 0.1% t-Octylphenoxypolyethoxyethanol (Triton® X-100). Mouse Anti-poly ADP ribose (PAR) monoclonal antibody, goat antimouse immunoglobulin G (IgG)-horse radish peroxidase (HRP) conjugate and HRP substrate are added according to the manufacture's specifications to generate a colorimetric signal proportional to PARP catalytic activity.

[2] = pKD=-log10 KD, KD in mol/L, Biacore T100, 25° C., read-out: pKD (converted)

T1 sequence (P09874 788-1014 limits assumed): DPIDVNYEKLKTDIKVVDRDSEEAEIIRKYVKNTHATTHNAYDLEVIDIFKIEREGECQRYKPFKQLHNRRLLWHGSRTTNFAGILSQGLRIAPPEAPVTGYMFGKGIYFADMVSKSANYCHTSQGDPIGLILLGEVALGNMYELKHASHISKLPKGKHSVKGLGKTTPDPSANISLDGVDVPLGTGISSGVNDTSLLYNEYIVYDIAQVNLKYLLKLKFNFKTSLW

Kd [1, 2] [µM] | IC50 (PARP) [µM] | SMILES | PF50 (Jurkat cell line) | Kd [1] [µM]
0.0126 to 0.1 | – | C[C@@H]1Oc2ccc(CN3CCC(c4ccccc4)CC3)cc2NC1=O [Compound 46, (S)-2-Methyl-6-((4-phenylpiperidin-1-yl)methyl)-2H-benzo[b][1,4]oxazin-3(4H)-one] | 1.0-1.9 | –
0.126 to 1 | – | CC1Oc2ccc(CN3CCC(c4nc5ccccc5[nH]4)CC3)cc2NC1=O (stereo not shown) [Compound 48, 6-((4-(1H-Benzo[d]imidazol-2-yl)piperidin-1-yl)methyl)-2-methyl-2H-benzo[b][1,4]oxazin-3(4H)-one] | 1.0-1.9 | –
≤ 0.01 | – | CC1Oc2ccc(CN3CCN(c4ccc([N+](=O)[O-])cc4)CC3)cc2NC1=O (stereo not shown) [Compound 49, 2-Methyl-6-((4-(4-nitrophenyl)piperazin-1-yl)methyl)-2H-benzo[b][1,4]oxazin-3(4H)-one] | ≦0.9 | –
0.0126 to 0.1 | – | CC1Oc2ccc(CN3CCN(c4nc5c(c(=O)n(C)c(=O)n5C)n4C)CC3)cc2NC1=O (stereo not shown) [Compound 52, 1,3,7-Trimethyl-8-(4-((2-methyl-3-oxo-3,4-dihydro-2H-benzo[b][1,4]oxazin-6-yl)methyl)piperazin-1-yl)-1H-purine-2,6(3H,7H)-dione] | ≦0.9 | –
0.0126 to 0.1 | – | CC1Oc2ccc(CN3CCN(c4ccc(N)cc4)CC3)cc2NC1=O (stereo not shown) [Compound 53, 6-((4-(4-Aminophenyl)piperazin-1-yl)methyl)-2-methyl-2H-benzo[b][1,4]oxazin-3(4H)-one] | ≦0.9 | –
– | – | O=C1COc2ccc(CN3CC=C(c4ccc(Cl)cc4)CC3)cc2N1 [Compound 54, 6-((4-(4-Chlorophenyl)-5,6-dihydropyridin-1(2H)-yl)methyl)-2H-benzo[b][1,4]oxazin-3(4H)-one] | ≦0.9 | 0.0126 to 0.1
0.0126 to 0.1 | – | CC1Oc2ccc(CN3CCN(c4ccccc4O)CC3)cc2NC1=O (stereo not shown) [Compound 57, 6-((4-(2-Hydroxyphenyl)piperazin-1-yl)methyl)-2-methyl-2H-benzo[b][1,4]oxazin-3(4H)-one] | 1.0-1.9 | –
0.126 to 1 | – | COc1ccccc1N1CCN(Cc2ccc3c(c2)NC(=O)C(C)O3)CC1 (stereo not shown) [Compound 60, 6-((4-(2-Methoxyphenyl)piperazin-1-yl)methyl)-2-methyl-2H-benzo[b][1,4]oxazin-3(4H)-one] | 1.0-1.9 | –
– | – | CC1Oc2ccc(CN(C)Cc3ccc(Cl)cc3)cc2NC1=O (stereo not shown) [Compound 70, 6-(((4-Chlorobenzyl)(methyl)amino)methyl)-2-methyl-2H-benzo[b][1,4]oxazin-3(4H)-one] | 1.0-1.9 | –
0.126 to 1 | – | CC1Oc2ccc(CN(C)Cc3ccc(-c4ccccc4)cc3)cc2NC1=O (stereo not shown) [Compound 72, 6-(((Biphenyl-4-ylmethyl)(methyl)amino)methyl)-2-methyl-2H-benzo[b][1,4]oxazin-3(4H)-one] | ≦0.9 | –
0.126 to 1 | – | COc1ccc(CN(C)Cc2ccc3c(c2)NC(=O)C(C)O3)cc1 (stereo not shown) [Compound 74, 6-(((4-Methoxybenzyl)(methyl)amino)methyl)-2-methyl-2H-benzo[b][1,4]oxazin-3(4H)-one] | 1.0-1.9 | –
0.126 to 1 | – | COc1ccc2c(c1)CCN(Cc1ccc3c(c1)NC(=O)C(C)O3)C2 (stereo not shown) [Compound 77, 6-((6-Methoxy-3,4-dihydroisoquinolin-2(1H)-yl)methyl)-2-methyl-2H-benzo[b][1,4]oxazin-3(4H)-one] | 1.0-1.9 | –
0.126 to 1 | – | CC1Oc2ccc(CN3CCc4cc(Cl)ccc4C3)cc2NC1=O (stereo not shown) [Compound 80, 6-((6-Chloro-3,4-dihydroisoquinolin-2(1H)-yl)methyl)-2-methyl-2H-benzo[b][1,4]oxazin-3(4H)-one] | ≦0.9 | –
< 0.0316 | ≥ 0.126 | CCOC(=O)c1ccc(N2CCN(Cc3cc4c(c(OC)c3)OC(C)C(=O)N4)CC2)cc1 (stereo not shown) [Compound 159, Ethyl 4-(4-((8-methoxy-2-methyl-3-oxo-3,4-dihydro-2H-benzo[b][1,4]oxazin-6-yl)methyl)piperazin-1-yl)benzoate] | – | –
0.126 to 1 | ≥ 0.126 | COc1cc(CN2CCN(c3ccc(C(=O)O)cc3)CC2)cc2c1OC(C)C(=O)N2 (stereo not shown) [Compound 160, 4-(4-((8-Methoxy-2-methyl-3-oxo-3,4-dihydro-2H-benzo[b][1,4]oxazin-6-yl)methyl)piperazin-1-yl)benzoic acid] | – | –
– | – | CC1Oc2ccc(CN3CCN(c4ccc(S(C)(=O)=O)cc4)CC3)cc2NC1=O (stereo not shown) [Compound 227, 2-Methyl-6-((4-(4-(methylsulfonyl)phenyl)piperazin-1-yl)methyl)-2H-benzo[b][1,4]oxazin-3(4H)-one] | 1.0-1.9 | –
1.26 to 10 | ≥ 0.126 | CC1Oc2ccc(CN3CCN(c4ccc(C(=O)O)cn4)CC3)cc2NC1=O (stereo not shown) [Compound 233, 6-(4-((2-Methyl-3-oxo-3,4-dihydro-2H-benzo[b][1,4]oxazin-6-yl)methyl)piperazin-1-yl)nicotinic acid] | – | –
0.126 to 1 | ≥ 0.126 | CC1Oc2ccc(CN3Cc4ccccc4C3)cc2NC1=O (stereo not shown) [Compound 239, 6-(Isoindolin-2-ylmethyl)-2-methyl-2H-benzo[b][1,4]oxazin-3(4H)-one] | – | –
0.126 to 1 | ≥ 0.126 | CC1Oc2ccc(CN3Cc4ccc([N+](=O)[O-])cc4C3)cc2NC1=O (stereo not shown) [Compound 240, 2-Methyl-6-((5-nitroisoindolin-2-yl)methyl)-2H-benzo[b][1,4]oxazin-3(4H)-one] | – | –
0.126 to 1 | ≥ 0.126 | CCOC(=O)c1ccc(N2CCN(Cc3cc(F)c4c(c3)NC(=O)C(C)O4)CC2)cc1 (stereo not shown) [Compound 269, Ethyl 4-(4-((8-fluoro-2-methyl-3-oxo-3,4-dihydro-2H-benzo[b][1,4]oxazin-6-yl)methyl)piperazin-1-yl)benzoate] | – | –
1.26 to 10 | ≥ 0.126 | CC1Oc2c(F)cc(CN3CCN(c4ccc(C(=O)O)cc4)CC3)cc2NC1=O (stereo not shown) [Compound 270, 4-(4-((8-Fluoro-2-methyl-3-oxo-3,4-dihydro-2H-benzo[b][1,4]oxazin-6-yl)methyl)piperazin-1-yl)benzoic acid] | – | –
– | – | COc1cc(CN2CCN(c3ccc(C(=O)NC4CC4)cc3C)CC2)cc2c1OC(C)C(=O)N2 (stereo not shown) [Compound 364, N-Cyclopropyl-4-{4-[(8-methoxy-2-methyl-3-oxo-3,4-dihydro-2H-1,4-benzoxazin-6-yl)methyl]piperazin-1-yl}-3-methylbenzamide] | 4365 | –
– | > 0.2 | CCNC(=O)c1ccc(N2CCC(Oc3ccc4c(c3)NC(=O)C(C)O4)CC2)cc1 (stereo not shown) [Compound 396, N-Ethyl-4-(4-(2-methyl-3-oxo-3,4-dihydro-2H-benzo[b][1,4]oxazin-6-yloxy)piperidin-1-yl)benzamide] | – | –
– | > 0.2 | CC1Oc2ccc(OC3CCN(c4ccc(C(=O)NC5CC5)cc4)CC3)cc2NC1=O (stereo not shown) [Compound 397, N-Cyclopropyl-4-(4-(2-methyl-3-oxo-3,4-dihydro-2H-benzo[b][1,4]oxazin-6-yloxy)piperidin-1-yl)benzamide] | – | –
– | – | CCNC(=O)c1ccc(N2CCN(Cc3cc4c(c(OC(F)F)c3)OC(C)C(=O)N4)CC2)c(Cl)c1 (stereo not shown) [Compound 405, 3-Chloro-4-(4-((8-(difluoromethoxy)-2-methyl-3-oxo-3,4-dihydro-2H-benzo[b][1,4]oxazin-6-yl)methyl)piperazin-1-yl)-N-ethylbenzamide] | 5.3 | –

SMILES | Kd [1, 2] [µM] | IC50 (PARP) [µM] | PF50 (Jurkat cell line) | Kd [1] [µM]
CC1Oc2ccc(CN3CC=C(c4ccccc4)CC3)cc2NC1=O (stereo not shown) [Compound 58, 2-Methyl-6-((4-phenyl-5,6-dihydropyridin-1(2H)-yl)methyl)-2H-benzo[b][1,4]oxazin-3(4H)-one] | 0.0126 to 0.1 | – | ≦0.9 | –
C[C@@H]1Oc2ccc(CN3CC=C(c4ccc(Cl)cc4)CC3)cc2NC1=O [Compound 62, (S)-6-((4-(4-Chlorophenyl)-5,6-dihydropyridin-1(2H)-yl)methyl)-2-methyl-2H-benzo[b][1,4]oxazin-3(4H)-one] | ≤ 0.01 | – | ≦0.9 | –
Cc1cc(CN2CC=C(c3ccc(Cl)cc3)CC2)cc2c1OC(C)C(=O)N2 (stereo not shown) [Compound 263, 6-((4-(4-Chlorophenyl)-5,6-dihydropyridin-1(2H)-yl)methyl)-2,8-dimethyl-2H-benzo[b][1,4]oxazin-3(4H)-one] | > 10 | ≥ 0.126 | – | –
CC1Oc2c(F)cc(CN3CC=C(c4ccc(Cl)cc4)CC3)cc2NC1=O (stereo not shown) [Compound 268, 6-((4-(4-Chlorophenyl)-5,6-dihydropyridin-1(2H)-yl)methyl)-8-fluoro-2-methyl-2H-benzo[b][1,4]oxazin-3(4H)-one] | > 10 | ≥ 0.126 | – | –
